Assay results: patent publication EP2088149A1 (priority 2006, dated 2008)

Assays:
AMPA receptors = assay: Patch-clamp potentiation of kainate-induced trans-membrane currents in freshly isolated cerebellar Purkinje's neurons; format: cell-based, rat; conditions: for Potentiation of cainate-induced currents (%) / Potentiation of cainate-induced currents (%): blockade: rat cerebellar Purkinje's neurons; for Washing returned the amplitude of responses to the control value: washing time after application of the compound; for Potentiation of cainate-induced currents (%): blockade: 10 µM, values are printed as blockade, without minus sign
Protocol: The inventors used determining the potentiating effect of novel compounds on kainate-induced trans-membrane currents in cerebellar Purkinje's neurons of rats for a directed search for compounds capable of potentiating responses of AMPA receptors (and thereby, to cause improvement of memory and cognitive functions).
Experiments on assessing the effect of substances on AMPA receptors were carried out using the patch-clamp method on freshly isolated Purkinje's neurons isolated from cerebellum of rats (aged 12 to 15 days). A modified method was used for isolation. 400 to 600 µm thick cerebellar slices were placed into a thermostatic 10 ml chamber. A solution for isolation had the following composition (in mM): NaCl 150.0, KCl 5.0; CaCl2 2.0, MgSO4×7H2O 2.0, HEPES 10.0, glucose 15.0, pH 7.42. The slices were incubated in this solution for 60 minutes, and thereafter, the solution was replaced by a similar solution comprising pronase (2 mg/ml) and collagenase (1 mg/ml) and incubated for 70 minutes. After washing with the original solution for 20 minutes, the slices were placed into a Petri plate and separated by a mechanic method using a Pasteur pipette. The solutions were continuously blown-through with 100% O2 at temperature 34°C. Purkinje's neurons were placed into a 0.6 ml working chamber. A process solution had the following composition (in mM): NaCl 150.0, KCl 5.0; CaCl2 2.6, MgSO4×7H2O 2.0, HEPES 10.0, glucose 15.0, pH 7.36.
Trans-membrane currents were induced by activation of AMPA receptors by applying agonist solutions of these receptors, i.e. cainic acid (CA) using a fast superfusion method. Cainic acid is an agonist of AMPA receptors and it is used for studying properties of AMPA receptors, since AMPA as such causes a too strong desensitization of the receptors, and it is not used in such experiments. Currents were recorded using borosilicate micro electrodes (resistance 1.5 to […]) filled with a following composition (in mM): KCl 100.0; EGTA 11.0, CaCl2 1.0, MgCl2 1.0, HEPES 10.0, ATP 5.0, pH 7.2.
The instrument EPC-9 (HEKA, Germany) was used for recoding. Currents were recorded on the PC Pentium-4 hard disc using the Pulse software, also purchased from the HEKA company. Results were processed using the Pulsefit software (HEKA).
Applying KK induced trans-membrane inward currents in Purkinje's neurons. Addition of the compounds of formula I to perfusion solution induced increase in amplitude of the currents. This increase was dependent on a compound, on concentration thereof, on time elapsed following commencement of a compound application.

[1] = Acute toxicity (LD50, Litchfield and Wilcoxon), intraperitoneal, 14 days follow-up; conditions: mouse, in vivo, ip; male white outbred mice, intraperitoneally, follow-up 14 days
Protocol: Acute toxicity of the substances was determined on males of white outbred mice weighing 22 to 26 grams. The substances were administered intraperitoneally as a solution or a suspension in 1% starch solution. Follow-up period was 14 days.

[2] = 0.1 µM, negative values = blockade of the currents
[3] = 1 µM, negative values = blockade of the currents

| SMILES | Potentiation of cainate-induced currents (%) (AMPA receptors; 0.0001 µM) | Potentiation of cainate-induced currents (%) (AMPA receptors; 0.001 µM) | Potentiation of cainate-induced currents (%) (AMPA receptors; 0.001 µM, listed as 1 (XXXI)) | Potentiation of cainate-induced currents (%) (AMPA receptors; 0.01 µM) | Potentiation of cainate-induced currents (%) (AMPA receptors; 0.01 µM, listed as 1 (XXXI)) | Potentiation of cainate-induced currents (%) (AMPA receptors; [2]) | Potentiation of cainate-induced currents (%) (AMPA receptors; 0.1 µM, negative values = blockade of the currents, listed as 1 (XXXI)) | Potentiation of cainate-induced currents (%) (AMPA receptors; [3]) | Potentiation of cainate-induced currents (%) (AMPA receptors; 1 µM, negative values = blockade of the currents, listed as 1 (XXXI)) | Washing returned the amplitude of responses to the control value (AMPA receptors) | LD50 at 14 days [1] | Potentiation of cainate-induced currents (%) (AMPA receptors; 0.00001 µM) | Potentiation of cainate-induced currents (%) (AMPA receptors; 0.00001 µM, listed as 2 (XXX2)) | Potentiation of cainate-induced currents (%) (AMPA receptors; 0.0001 µM, listed as 2 (XXX2)) | Potentiation of cainate-induced currents (%) (AMPA receptors; 0.001 µM, listed as 2 (XXX2)) | Potentiation of cainate-induced currents (%) (AMPA receptors; 0.01 µM, listed as 2 (XXX2)) | Potentiation of cainate-induced currents (%) (AMPA receptors; 0.1 µM, negative values = blockade of the currents, listed as 2 (XXX2)) | Potentiation of cainate-induced currents (%): blockade (AMPA receptors) | Potentiation of cainate-induced currents (%) (AMPA receptors; 30 µM) |
| --- | --- | --- | --- | --- | --- | --- | --- | --- | --- | --- | --- | --- | --- | --- | --- | --- | --- | --- | --- |
| CC12CN(C(=O)c3ccc4c(c3)OCCO4)CC(C)(CN(C(=O)c3ccc4c(c3)OCCO4)C1)C2=O [Compound 1, 3,7-bis(2,3-dihydro-1,4-benzodioxin-6-ylcarbonyl)-1,5-dimethyl-3,7-diazabicyclo[3.3.1]nonan-9-one] | 0.0001 µM - no potentiation | 40 to 50% | 0.001 µM - potentiation by 40 to 50%, | 80% | 0.01 µM - potentiation by 80% | 0% | 0.1 µM - 0%, | -20 to -40% | 1 µM - blockade by -20 to -40% | 3 to 5 min | 350 mg/kg | – | – | – | – | – | – | – | – |
| CC12CN(C(=O)c3ccc4c(c3)OCO4)CC(C)(CN(C(=O)c3ccc4c(c3)OCO4)C1)C2=O [Compound 2, 3,7-bis(1,3-benzodioxol-5-ylcarbonyl)-1,5-dimethyl-3,7-diazabicyclo[3.3.1]nonan-9-one] | 50-90% | 60-140% | – | 0-20% | – | – | – | – | – | 4 to 6 min | 140 mg/kg | 10% | 0.00001 µM -potentiation by 20 to 40% | 0.0001 µM - potentiation by 50 to 90%, | 0.001 µM - potentiation by 60 to 140% | 0.01 µM - potentiation by 0 to 20%, | 0.1 µM - blockade by -20 to -40% | – | – |
| Cc1nc2ccc(C(=O)N3CC4(C)CN(C(=O)c5ccc6nc(C)c(C)nc6c5)CC(C)(C3)C4=O)cc2nc1C [Compound 3, 3,7-bis[(2,3-dimethylquinoxalin-6-yl)carbonyl]-1,5-dimethyl-3,7-diazabicyclo[3.3.1]nonan-9-one] | 0.0001 µM - no potentiation | 0.001 µM - potentiation by 10 to 15% | – | 0.01 µM - potentiation by 20 to 30%, | – | 0.1 µM - blockade by -20 to -50% | – | 1 µM - no potentiation | – | – | 90 mg/kg | – | – | – | – | – | – | 10 µM - blockade by 20 to 50% | – |
| COc1ccc(C(=O)N2CC3(C)CN(C(=O)c4ccc(OC)c(Cn5cccn5)c4)CC(C)(C2)C3=O)cc1Cn1cccn1 [Compound 4] | – | 0.001 µM - no effect | – | 0.01 µM - potentiation by 10 to 30%, | – | 0.1 µM - blockade by -20 to -40% | – | 1 µM - 0% | – | – | 900 mg/kg | – | – | – | – | – | – | 10 µpM - blockade by 15 to 35% | – |
| CC12CC3CC(C)(C1)CC(N)(C3)C2 [Memantine, reference compound] | – | – | – | – | – | – | – | – | – | – | 1000 mg/kg | – | – | – | – | – | – | – | potentiation by 0 to 15% at 30 µM |
